The results in this text go back to patent US5849259A, “3-,8-substituted deuteroporphyrin derivatives, pharmaceutical agents containing the latter and process for their production” (priority 1992, dated 1998).

A short description of data set [1]: Tissue concentrations by ICP-AES after 0.1 mmol/kg i.v. in nude mice with subcutaneously implanted colon cancers (HT29, WiDr). The format is in vivo, nude mice (Balb/c nu/nu). The protocol: a) 9 nude mice (Balb/c nu/nu) with subcutaneously implanted colon cancers (HT29, WiDr) were each administered by i.v. 0.1 mmol/kg of the mesoporphyrin derivative of example 1b (10 mmol/l dissolved in bidistilled water, pH 7.2, 37° C.). After 0.5, 3 and 24 hours the animals were killed and dissected. The tissue concentrations were determined after corresponding working-up (HNO3 conc.) by ICP-AES and calculated for % of the administered dose per gram of tissue net weight.
e) 9 nude mice (Balb/c nu/nu) with subcutaneously implanted colon cancers (HT29 and WiDr) were each administered by i.v. 0.1 mmol/kg of the deuteroporphyrin derivative of the compound according to example 1c (10 mmol/l dissolved in bidistilled water, pH 7.2, 37° C.). After 0.5, 3 and 24 hours, the animals were killed and dissected. The tissue concentrations were determined after corresponding working-up (HNO3 conc.) by ICP-AES and calculated for % of the administered dose per gram of tissue net weight. Moreover, tissue relaxation times T1 and T2 were determined (Bruker minispec pc 120).
9 nude mice (Balb/c nu/nu) with subcutaneously implanted colon cancers (HT29, WiDr) were each administered by i.v. 0.1 mmol/kg of the mesoporphyrin derivative of example 8e (10 mmol/l dissolved in bidistilled water, pH 7.2, 37° C.). After 0.5, 3 and 24 hours, the animals were killed and dissected. The tissue concentrations were determined after corresponding working-up (HNO3 conc.) by ICP-AES and calculated for % of the administered dose per gram of tissue net weight.
9 nude mice (Balb/c nu/nu) with subcutaneously implanted colon cancers (HT29, WiDr) were each administered by i.v. 0.1. mmol/kg of the mesoporphyrin derivative of example 16f (10 mmol/l dissolved in bidistilled water, pH 7.2, 37° C.). After 0.5 and 3 hours the animals were killed and dissected. The tissue concentrations were determined after corresponding working-up (HNO3 conc.) by ICP-AES and calculated for % of the administered dose per gram of tissue net weight.
9 nude mice (Balb/c nu/nu) with subcutaneously implanted colon cancers (HT29, WiDr) were each administered by i.v. 0.1 mmol/kg of the mesoporphyrin derivative of example 18d (10 mmol/l dissolved in bidistilled water, pH 7.2, 37° C.). After 0.5 and 3 hours, the animals were killed and dissected. The tissue concentrations were determined after corresponding working-up (HNO3 conc.) by ICP-AES and calculated for % of the administered dose per gram of tissue net weight.
9 nude mice (Balb/c nu/nu) with subcutaneously implanted colon cancers (HT29, WiDr) were each administered by i.v. 0.1 mmol/kg of the mesoporphyrin derivative of example 19e (10 mmol/l dissolved in bidistilled water, pH 7.2, 37° C.). After 0.5, 3 and 24 hours, the animals were killed and dissected. The tissue concentrations were determined after corresponding working-up (HNO3 conc.) by ICP-AES and calculated for % of the administered dose per gram of tissue net weight.

Assay in data set [2]: as above
The format is in vivo, nude mice (Balb/c nu/nu). The settings on record: 2 hours p.i. (so in the source).

For “Zinc(II)-{N,N'-bis[11-carboxylato-2-oxo-4,7,10-tris-(carboxylatomethyl)-1,4,7,10-tetraazaundecyl]-3,8-bis-(2-(naphth-1-yl)-ethyl)-deuteroporphyrin-IX-13,17-diamide}, digadolinium complex, disodium salt [Example 18d]”, in data set [1] (0.5 hour p.i.), the “tissue concentration, HT29 tumor” value is on record as 1.48 ± 0.28 % of the administered dose per gram of tissue net weight; the “tissue concentration, WiDr tumor” value is 1.94 ± 0.78 % of the administered dose per gram of tissue net weight; the “tissue concentration, blood” value is reported as 24.44 ± 2.32 % of the administered dose per gram of tissue net weight; the “tissue concentration, intestine” value was 4.93 ± 0.90 % of the administered dose per gram of tissue net weight. In addition, in data set [1] (0.5 hour p.i.), the “tissue concentration, kidneys” value was 11.74 ± 2.38 % of the administered dose per gram of tissue net weight; the “tissue concentration, lung” value is recorded as 17.70 ± 2.50 % of the administered dose per gram of tissue net weight; the “tissue concentration, muscle” value is 0.89 ± 0.17 % of the administered dose per gram of tissue net weight; the “tissue concentration, rest of body” value is 2.38 ± 0.27 % of the administered dose per gram of tissue net weight. In data set [1] (0.5 hour p.i.), the “tissue concentration, skin” value is recorded as 3.71 ± 0.52 % of the administered dose per gram of tissue net weight and the “tissue concentration, spleen” value was 7.52 ± 0.40 % of the administered dose per gram of tissue net weight. In data set [1] (3 hours p.i.), the “tissue concentration, HT29 tumor” value is given as 3.53 ± 0.52 % of the administered dose per gram of tissue net weight; the “tissue concentration, WiDr tumor” value is reported as 4.50 ± 0.98 % of the administered dose per gram of tissue net weight; the “tissue concentration, blood” value was 16.95 ± 1.53 % of the administered dose per gram of tissue net weight; the “tissue concentration, intestine” value is given as 2.31 ± 0.28 % of the administered dose per gram of tissue net weight. Also, in data set [1] (3 hours p.i.), the “tissue concentration, kidneys” value was 20.41 ± 1.88 % of the administered dose per gram of tissue net weight; the “tissue concentration, liver” value is 16.89 ± 1.15 % of the administered dose per gram of tissue net weight; the “tissue concentration, lung” value is recorded as 17.56 ± 3.34 % of the administered dose per gram of tissue net weight; the “tissue concentration, muscle” value is 1.04 ± 0.06 % of the administered dose per gram of tissue net weight. For the same substance, in data set [1] (3 hours p.i.), the “tissue concentration, rest of body” value was 2.43 ± 0.13 % of the administered dose per gram of tissue net weight; the “tissue concentration, skin” value was 4.46 ± 0.53 % of the administered dose per gram of tissue net weight; the “tissue concentration, spleen” value is 10.82 ± 0.87 % of the administered dose per gram of tissue net weight. The “tissue concentration, liver” value in data set [2] is reported as ~17 % of the administered dose per.
